Values joined by “and” are separate entries in the source; they are usually repeats but may differ in a detail not shown here. Identical values can stand only once. Like-named read-outs stand apart in the source and are kept apart here. Residues, ends and D or L forms follow the SMILES beside them. No end group written: not given here.
Columns and labels:
Experiment in all cases: Fluorescence polarization direct binding
Bcl-2 = molecular target: T1, Bcl-2 (Homo sapiens, UniProt P10415, DEL53-91)
T1 construct: myc- Bcl-2 FP; made in house
T1 sequence (P10415 with tags, fused parts or gaps DEL53-91): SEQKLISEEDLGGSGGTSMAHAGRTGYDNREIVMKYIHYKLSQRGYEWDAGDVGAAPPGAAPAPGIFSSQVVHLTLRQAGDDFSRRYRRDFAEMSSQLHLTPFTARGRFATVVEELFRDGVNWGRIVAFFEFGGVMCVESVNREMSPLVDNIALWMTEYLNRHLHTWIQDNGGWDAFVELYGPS
Experimental: (§1) Peptides were purified by reverse-phase HPLC using a C18 column and a linear water/acetonitrile gradient. We re-analyzed the purified peptide by mass spectrometry if there was not a single well-defined peak in HPLC chromatogram.
(§2) Fluorescence polarization (FP) assays were done at 25°C in assay buffer (20 mM NaPO4, 50 mM NaCl, 1 mM EDTA, 0.001% Triton X (v/v), pH 7.8). […] For all FP experiments, the total well volume was 120 µl. […] Anisotropy was measured using a Spectramax M5 plate reader from Molecular Devices.
(§3) Direct binding curves were fit using Pylab/Scipy/Optimize to a single-site binding model utilized previously.
(§4) ^1Best-fit KD values determined by combining all replicate titration curves and fitting to a direct binding model (see Methods). […] Values with an X followed by a number indicate the highest concentration (the number, in nM) for which signal was measured yet no binding was detected.

Bcl-w = molecular target: T2, Bcl-w (Homo sapiens, UniProt Q92843, Q133R)
T2 construct: myc-Bcl-w SPOT array & FP; made in house
T2 sequence (Q92843 with tags, fused parts or gaps Q133R): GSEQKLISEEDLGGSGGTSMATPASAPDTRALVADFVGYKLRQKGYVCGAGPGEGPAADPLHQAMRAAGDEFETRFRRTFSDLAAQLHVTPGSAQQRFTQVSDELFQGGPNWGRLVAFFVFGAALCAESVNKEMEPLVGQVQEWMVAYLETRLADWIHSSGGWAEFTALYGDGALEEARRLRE
Experimental: as §1, §2, §3, §4

Mcl-1 = molecular target: T3, Mcl-1 (Homo sapiens, UniProt Q07820)
T3 construct: myc-Mcl-1 SPOT array & FP; made in house
T3 sequence (Q07820 with tags, fused parts or gaps): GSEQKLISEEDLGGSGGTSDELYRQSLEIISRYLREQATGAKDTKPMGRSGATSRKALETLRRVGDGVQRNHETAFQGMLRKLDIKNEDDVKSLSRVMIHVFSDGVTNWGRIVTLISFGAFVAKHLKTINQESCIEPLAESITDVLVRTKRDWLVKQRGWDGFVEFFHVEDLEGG
Experimental: as §1, §2, §3, §4

Bfl-1 = molecular target: T4, Bfl-1 (Homo sapiens, UniProt Q16548)
T4 construct: myc- Bfl-1 SPOT array & FP; made in house
T4 sequence (Q16548 with tags, fused parts or gaps): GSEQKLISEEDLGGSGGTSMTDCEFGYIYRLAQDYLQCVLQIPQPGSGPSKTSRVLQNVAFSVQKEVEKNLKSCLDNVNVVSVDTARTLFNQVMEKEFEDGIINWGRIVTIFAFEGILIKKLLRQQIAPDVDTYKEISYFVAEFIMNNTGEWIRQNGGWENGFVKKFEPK
Experimental: as §1, §2, §3, §4

Bcl-xL = molecular target: T5, Bcl-xL (Homo sapiens, UniProt Q07817)
T5 construct: myc-Bcl-xL SPOT array & FP; made in house
T5 sequence (Q07817 with tags, fused parts or gaps): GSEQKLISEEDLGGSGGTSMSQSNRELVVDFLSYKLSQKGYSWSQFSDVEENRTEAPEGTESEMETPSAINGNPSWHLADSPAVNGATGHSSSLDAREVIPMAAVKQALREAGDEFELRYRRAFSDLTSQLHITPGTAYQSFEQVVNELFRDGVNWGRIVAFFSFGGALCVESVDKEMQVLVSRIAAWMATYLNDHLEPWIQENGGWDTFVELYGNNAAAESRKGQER
Experimental: as §1, §2, §3, §4

[1] = FP direct binding, 10 nM FAM-labeled peptide, receptor titrated, 25°C, pH 7.8, fit of all replicate titrations, X+number in a cell = highest concentration (nM) measured with no binding detected, given here as >, SPNS1 fit to raw fluorescence, read-out: Best-fit KD, Bcl-2
[2] = benchmark classification of peptides newly characterized in this study, read-out: Binder class, Bcl-2
[3] = FP direct binding, 10 nM FAM-labeled peptide, receptor titrated, 25°C, pH 7.8, fit of all replicate titrations, X+number in a cell = highest concentration (nM) measured with no binding detected, given here as >, SPNS1 fit to raw fluorescence, read-out: Best-fit KD, Bcl-w
[4] = benchmark classification of peptides newly characterized in this study, read-out: Binder class, Bcl-w
[5] = Binder class, Mcl-1, benchmark classification of peptides newly characterized in this study
[6] = FP direct binding, 10 nM FAM-labeled peptide, receptor titrated, 25°C, pH 7.8, fit of all replicate titrations, X+number in a cell = highest concentration (nM) measured with no binding detected, given here as >, SPNS1 fit to raw fluorescence
[7] = FP direct binding, 10 nM FAM-labeled peptide, receptor titrated, 25°C, pH 7.8, fit of all replicate titrations, X+number in a cell = highest concentration (nM) measured with no binding detected, given here as >, SPNS1 fit to raw fluorescence, read-out: Best-fit KD, Bfl-1
[8] = benchmark classification of peptides newly characterized in this study, read-out: Binder class, Bfl-1
[9] = FP direct binding, 10 nM FAM-labeled peptide, receptor titrated, 25°C, pH 7.8, fit of all replicate titrations, X+number in a cell = highest concentration (nM) measured with no binding detected, given here as >, SPNS1 fit to raw fluorescence, read-out: Best-fit KD, Bcl-xL
[10] = benchmark classification of peptides newly characterized in this study, read-out: Binder class, Bcl-xL

Row | Compound | Kd (Bcl-2; [1]) | Kd (Bcl-2; [2]) | Kd (Bcl-w; [3]) | Kd (Bcl-w; [4]) | Kd (Mcl-1; [5]) | Kd (Mcl-1; [6]) | Kd (Bfl-1; [7]) | Kd (Bfl-1; [8]) | Kd (Bcl-xL; [9]) | Kd (Bcl-xL; [10]) | Best-fit KD, Mcl-1 (Mcl-1; [6])
1 | KREKLVEILRNIGDERTMVFVET-NH2 [DDX4] | > 3050 nM | < 1000 nM | > 4350 nM | 1000 to 10000 nM | < 1000 nM | 142 nM | > 3370 nM | > 10000 nM | > 4000 nM | > 10000 nM | bound tightly
2 | CC[C@H](C)[C@H](NC(=O)[C@@H](NC(=O)[C@H](CCSC)NC(=O)CNC(=O)[C@H](CCCNC(=N)N)NC(=O)[C@H](CO)NC(=O)[C@H](CCC(N)=O)NC(=O)[C@H](CC(C)C)NC(=O)[C@H](CC(C)C)NC(=O)[C@H](CO)NC(=O)CNC(=O)[C@H](CS)NC(=O)[C@@H](NC(=O)[C@H](CC(=O)O)NC(=O)[C@H](CCCNC(=N)N)NC(=O)[C@H](CCSC)NC(=O)[C@H](CC(C)C)NC(=O)[C@H](CCCCN)NC(=O)[C@H](CO)NC(=O)[C@@H](NC(=O)[C@H](CS)NC(=O)[C@H](CO)NC(=O)[C@H](CC(C)C)NC(=O)[C@H](CCC(N)=O)NC(=O)[C@H](CS)NC(=O)[C@@H](N)CC(C)C)C(C)C)C(C)C)C(C)C)C(N)=O [FBXO30] (H-LCQLSCVSKLMRDVCGSLLQSRGMVI-NH2) | 2560 nM |  | 3280 nM |  | 1000 to 10000 nM | > 10000 nM | > 10000 nM |  | > 10000 nM |  | 
3 | ATKRETAATFLKKVAKEFGFQNNGFS-NH2 [NPLOC4] | 2060 nM | > 10000 nM | > 4500 nM | > 10000 nM | 1000 to 10000 nM | > 4000 nM | > 4670 nM | > 10000 nM | > 100000 nM | > 10000 nM | 
4 | CC[C@H](C)[C@H](N)C(=O)N[C@H](C(=O)N[C@@H](CCC(N)=O)C(=O)N[C@@H](CCSC)C(=O)N[C@H](C(=O)N[C@H](C(=O)N[C@@H](CCC(=O)O)C(=O)N[C@@H](CC(C)C)C(=O)N[C@@H](CC(C)C)C(=O)N[C@@H](CCCCN)C(=O)N[C@@H](CCCNC(=N)N)C(=O)N[C@H](C(=O)NCC(=O)N[C@@H](CC(=O)O)C(=O)N[C@@H](CCC(N)=O)C(=O)N[C@@H](Cc1c[nH]c2ccccc12)C(=O)N[C@@H](CCC(=O)O)C(=O)N[C@@H](CCC(=O)O)C(=O)N[C@@H](CCC(=O)O)C(=O)N[C@@H](CCC(N)=O)C(=O)N[C@@H](CO)C(=O)N[C@@H](CC(C)C)C(=O)N[C@@H](C)C(N)=O)C(C)C)C(C)C)[C@@H](C)CC)[C@@H](C)CC [C6orf222] | < 30 nM and 0.3 nM | < 1000 nM | < 30 nM and 13 nM | < 1000 nM | < 1000 nM | < 30 nM and 23 nM | < 30 nM and 1 nM | < 1000 nM |  |  | 
5 | IIHKLAMQLRHIGDNIDHRMVRE-NH2 [PXT1] | < 30 nM and 14 nM | < 1000 nM | < 30 nM and 5 nM | < 1000 nM | < 1000 nM | < 30 nM and 0.9 nM | < 30 nM and 1 nM | < 1000 nM | < 30 nM and 8 nM | < 1000 nM | 
6 | CC(C)C[C@H](NC(=O)CNC(=O)[C@@H](NC(=O)[C@H](CCCCN)NC(=O)[C@H](CCCCN)NC(=O)[C@H](CC(N)=O)NC(=O)[C@H](CCC(=O)O)NC(=O)[C@H](CC(=O)O)NC(=O)[C@@H](N)[C@@H](C)O)C(C)C)C(=O)N[C@@H](C)C(=O)N[C@@H](CC(C)C)C(=O)N[C@@H](CCCCN)C(=O)N[C@@H](CC(=O)O)C(=O)N[C@@H](CC(C)C)C(=O)N[C@@H](C)C(=O)N[C@@H](CCCCN)C(=O)N[C@@H](CCC(N)=O)C(=O)N[C@@H](Cc1ccc(O)cc1)C(=O)N[C@@H](CO)C(=O)N[C@@H](CC(=O)O)C(=O)N[C@@H](CCCNC(=N)N)C(=O)N[C@@H](CC(C)C)C(=O)N[C@@H](CCC(=O)O)C(=O)N[C@@H](CS)C(=O)N[C@@H](CS)C(=O)N[C@@H](CCC(=O)O)C(N)=O [NUB1] (H-TDENKKVGLALKDLAKQYSDRLECCE-NH2) | 562 nM |  | > 4000 nM |  | > 10000 nM | > 10000 nM | > 4000 nM |  | 2720 nM |  | 
7 | DARDYAVVLRKYADKIYSISMKH-NH2 [FOLH1] | 70 nM | > 10000 nM | 907 nM | > 10000 nM |  |  | 1600 nM | 1000 to 10000 nM |  | < 1000 nM | 
8 | EVLAGPLAQRLSHIAEDVGRLVKKSR-NH2 [ARHGAP4] | 6090 nM | 1000 to 10000 nM | 749 nM | 1000 to 10000 nM | < 1000 nM | > 2430 nM | > 5590 nM | > 10000 nM | 3060 nM | 1000 to 10000 nM | 
9 | FIQSLAAMLKQYADKLEFMHILT-NH2 [CASP3] | 264 nM | < 1000 nM | 64 nM | < 1000 nM | 1000 to 10000 nM |  | 43 nM | < 1000 nM |  |  | 

Now from value to compound:

Row | Kd (Bcl-2; [1]) | Kd (Bcl-2; [2]) | Kd (Bcl-w; [3]) | Kd (Bcl-w; [4]) | Kd (Mcl-1; [5]) | Kd (Mcl-1; [6]) | Kd (Bfl-1; [7]) | Kd (Bfl-1; [8]) | Kd (Bcl-xL; [9]) | Kd (Bcl-xL; [10]) | Best-fit KD, Mcl-1 (Mcl-1; [6]) | Compound
10 | > 3050 nM | 1000 to 10000 nM | > 4350 nM | > 10000 nM | > 10000 nM | 3850 nM | > 3370 nM | > 10000 nM | > 7000 nM | > 10000 nM |  | QRKHEGFERDLAALGDKVNSLGETAE-NH2 [SPTAN1]
11 | 237 nM | < 1000 nM | 18 nM | < 1000 nM | < 1000 nM | 22 nM | 182 nM | < 1000 nM | 1460 nM | 1000 to 10000 nM |  | GDSVLARMLRELGDSLRRPQLRL-NH2 [SLC19A1]
12 | 342 nM | 1000 to 10000 nM | > 100000 nM | 1000 to 10000 nM | 1000 to 10000 nM | > 4000 nM | > 4000 nM | > 10000 nM | 1380 nM | 1000 to 10000 nM |  | APYYLSRNLKQQADIIFMPYNYL-NH2 [RTEL1]
13 | > 3050 nM | > 10000 nM | > 6560 nM | > 10000 nM | < 1000 nM | 22 nM | > 4070 nM | > 10000 nM | > 4000 nM | > 10000 nM | bound tightly | THEEVVHLLRNAGDEVTITVEYL-NH2 [SNTG2]
14 | 28 nM | < 1000 nM | 871 nM | < 1000 nM | < 1000 nM | 19 nM | 278 nM | < 1000 nM | 96 nM | < 1000 nM |  | SYMVLAPVFGYLGDRYNRKYLMA-NH2 [SPNS1]
15 | 49 nM | < 1000 nM | 992 nM | < 1000 nM | < 1000 nM | 69 nM | 99 nM | < 1000 nM |  | 1000 to 10000 nM |  | GSGAWGLLLRRVGDDVLVHLLAR-NH2 [TERT]
16 | 124 nM | < 1000 nM | 2490 nM | < 1000 nM | > 10000 nM | 592 nM | 1900 nM | 1000 to 10000 nM | 679 nM | < 1000 nM |  | RVEQMAIQIKEVGDRVNYIKRSL-NH2 [TRPM7]
17 | > 3050 nM |  | > 4350 nM |  |  |  | > 3370 nM |  |  |  |  | CC[C@H](C)[C@H](NC(=O)[C@H](CCC(N)=O)NC(=O)[C@H](C)NC(=O)[C@H](CC(C)C)NC(=O)[C@H](Cc1ccc(O)cc1)NC(=O)[C@H](CCCNC(=N)N)NC(=O)[C@H](CO)NC(=O)[C@H](CCC(=O)O)NC(=O)[C@@H]1CCCN1C(=O)[C@@H](NC(=O)[C@@H](NC(=O)[C@H](CCC(=O)O)NC(=O)[C@@H](NC(=O)[C@@H](N)CCCCN)[C@@H](C)CC)[C@@H](C)O)[C@@H](C)O)C(=O)NCC(=O)N[C@@H](CC(=O)O)C(=O)N[C@@H](CO)C(=O)N[C@H](C(=O)N[C@@H](CO)C(=O)N[C@@H](CC(C)C)C(=O)N[C@H](C(=O)N[C@@H](CS)C(=O)N[C@@H](CO)C(=O)N[C@H](C(=O)N[C@H](C(=O)NCC(N)=O)[C@@H](C)O)[C@@H](C)O)[C@@H](C)O)C(C)C [VCAM1]
